Measured values: patent US20240382509A1, “Cannabinoids C- and O-glycosides possessing anti-proliferative and anti-metastatic properties and process for preparation thereof” (Council of Scientific and Industrial Research, priority 2021, published 2024)
Where two headings read alike, the source gives them in different places.

Key:
MIAPaCa-2 cells [1] = test: MTT cell viability assay, MIAPaCa-2; assay type: cell-based, human
Method: (§1) Cell viability assay: The cell viability was determined by the standard MTT assay method. Briefly, Panc-1, HCT-116, A549, PC3, MIAPaca-2, HT-29, MDA-MB-231, MCF7 cells, and fR2cells were seeded in 96 well tissue culture plates (Nunc) at a density of 4×10^3 cells per well and treated with varying concentrations of the test compounds in triplicates. DMSO was taken as a vehicle, and its final concentration was maintained at 0.2% in the culture medium. Doxorubicin was employed as a positive control. After 44 h of incubation, MTT dye solution was added into the medium, and cells were incubated for another 4 h at 37° C. in 5% CO2. The amount of colored formazan derivatives formed was measured by taking optical density (OD) using a microplate reader (TECAN, Infinite M200 Pro) at 570 nm, and the percentage of cell viability was calculated. The IC50 values were calculated using GraphPad Prism software (Version 5.0).

[2] = MTT cell viability assay, fR2 normal epithelial cells; assay type: cell-based, human; details: human, fR2 normal epithelial cells; MTT, 48 h; normal epithelial cell line; read-out: Cytotoxicity (IC50) fR2
Method: as §1

PC3 cells = test: MTT cell viability assay, PC3; assay type: cell-based
Method: as §1

[3] = test system: human colorectal adenocarcinoma cell line (HT-29); test: MTT cell viability assay, HT-29; assay type: cell-based; details: human colorectal adenocarcinoma cell line
Method: as §1

[4] = test system: lung adenocarcinoma cells (A549); test: MTT cell viability assay, A549; assay type: cell-based
Method: as §1

MCF-7 cells = test: MTT cell viability assay, MCF-7; assay type: cell-based; details: breast cancer cell of epithelial origin
Method: as §1

Panc-1 cells [5] = test: MTT cell viability assay, Panc-1; assay type: cell-based; details: for IC50: pancreatic cancer cells
Method: as §1

MIAPaCa-2 cells [6] = test: Cell scatter assay; assay type: cell-based, human; details: MIAPaCa-2, 1, 2, 3 μM, 36 h, compared to vehicle and parent molecule
Method: Cell scatter assay MIAPaCa-2 cells were seeded onto a 12 well plate at a seeding density of 500 cells/well and kept for 4-5 days, and there was the formation of scatter colonies since the cell line itself is a metastatic cell line. Accordingly, they were treated with 1 μM, 2 μM & 3 μM of compound 2, 2a, 2b, 3, 3a, 4, 4a & 4b for 36 h, and upon termination, they were washed with PBS and observed under an inverted microscope at 20× magnification (FIG. 3).

HCT-116 cells = test: MTT cell viability assay, HCT-116; assay type: cell-based; details: colorectal adenocarcinoma cells
Method: as §1

Panc-1 cells [7] = test: Colony formation assay; assay type: cell-based; details: Panc-1, 1000 cells/well, 5 days, compared to corresponding parent compounds
Method: Colony formation assay. […] cells were seeded onto 6 well plates with a seeding density of 1000 cells/well. The cells after attachment were treated with 2 (2a, 2b), 3 (3a, 3b), 4 (4a, 4b) along with DMSO as a vehicle control and incubated for 5-6 days. After incubation, the plates were washed with ice-cold PBS, and the cells were fixed with methanol for 5 min. After fixing. the cells were stained with 0.2% crystal violet stain for 1 h. The cells were then washed with distilled water to remove the stain and were observed under an inverted microscope at 20× magnification.
The anti-proliferative properties of glycosidic derivatives were further analysed by colony formation assay in pancreatic cancer cells. The novel C-glycosidic derivatives of compounds 1, 2, 3 and 4 viz 1b, 2b, 3b & 4b display anti-proliferative property (FIG. 2). Panc-1cells were seeded onto 6 well plates at seeding density 1000 cells/well and treated with indicated concentration of 1b, 2b, 3b and 4b derivatives along with their parent compounds and DMSO as vehicle for 5 days. Upon termination the cells were stained with crystal violet and images of field were photographed.

[8] = Homo sapiens, MIA PaCa-2, 48 h, read-out: Cytotoxicity (IC50) MIAPaCa-2, MTT, 48 h
[9] = Homo sapiens, PC-3, 48 h, read-out: Cytotoxicity (IC50) PC3, MTT, 48 h
[10] = Homo sapiens, HT-29, 48 h, read-out: Cytotoxicity (IC50) HT-29, MTT, 48 h
[11] = Homo sapiens, MCF7, 48 h, read-out: Cytotoxicity (IC50) MCF-7, MTT, 48 h
[12] = Homo sapiens, HCT-116, 48 h, read-out: Cytotoxicity (IC50) HCT-116, MTT, 48 h
[13] = Homo sapiens, A549, 48 h, read-out: Cytotoxicity (IC50) A549, MTT, 48 h
[14] = Homo sapiens, PANC-1, 48 h, read-out: Cytotoxicity (IC50) Panc-1, MTT, 48 h

CCCCCc1cc(O[C@@H]2OC(CO)[C@@H](O)C(O)C2O)c2c(c1)OC(C)(C)[C@@H]1CC=C(C)C[C@@H]21 (single isomer, unassigned) [Compound 3a, Δ^8-tetrahydrocannabinol-1-O-β-D-glucopyranoside]
IC50 (MIAPaCa-2 cells [1]; [8]): 0.742 µM
IC50 at 48 h [2]: > 100 µM
IC50 (PC3 cells; [9]): 38 µM
IC50 [3, 10]: 10.7 µM
IC50 ([4]; read-out: Cytotoxicity (IC50) A549, MTT, 48 h): 2.15 µM
IC50 (MCF-7 cells; [11]): 34.9 µM
IC50 (Panc-1 cells [5]; read-out: Cytotoxicity (IC50) Panc-1, MTT, 48 h): 3.16 µM
cell scattering (MIAPaCa-2 cells [6]): did not prevent cell scattering
IC50 (HCT-116 cells; [12]): 30.2 µM

CCCCCc1cc(O)c2c(c1)OC(C)(C)c1ccc(C)cc1-2 (single isomer, unassigned) [Compound 4, Cannabinol, reference compound]
IC50 (MIAPaCa-2 cells [1]; [8]): 1.63 µM
IC50 (PC3 cells; [9]): 28 µM
IC50 [3, 10]: 20.4 µM
IC50 [4, 13]: 2.13 µM
IC50 (MCF-7 cells; [11]): 50.6 µM
IC50 (Panc-1 cells [5]; [14]): 11.8 µM
IC50 (HCT-116 cells; [12]): 47.1 µM

CCCc1cc(O)c2c(c1)OC(C)(C)[C@@H]1CCC(C)=C[C@@H]21 [Compound 1, Δ^9-tetrahydrocannabivarin, reference compound]
IC50 (MIAPaCa-2 cells [1]; MTT, 48 h, read-out: Cytotoxicity (IC50) MIAPaCa-2): 23.2 µM
IC50 (PC3 cells; MTT, 48 h, read-out: Cytotoxicity (IC50) PC3): 88.2 µM
IC50 ([3]; MTT, 48 h, read-out: Cytotoxicity (IC50) HT-29): 46.2 µM
IC50 ([4]; MTT, 48 h, read-out: Cytotoxicity (IC50) A549): 39.4 µM
IC50 (MCF-7 cells; MTT, 48 h, read-out: Cytotoxicity (IC50) MCF-7): > 100 µM
IC50 (Panc-1 cells [5]; MTT, 48 h, read-out: Cytotoxicity (IC50) Panc-1): 9.28 µM
IC50 (HCT-116 cells; MTT, 48 h, read-out: Cytotoxicity (IC50) HCT-116): 10.7 µM

CCCc1cc(O[C@@H]2OC(CO)[C@@H](O)C(O)C2O)c2c(c1)OC(C)(C)[C@@H]1CC=C(C)C[C@@H]21 (stereo partly drawn) [Compound 1a, Δ^8-tetrahydrocannabivarin-1-O-β-D-glucopyranoside]
IC50 (MIAPaCa-2 cells [1]; [8]): > 100 µM
IC50 (PC3 cells; [9]): > 100 µM
IC50 [3, 10]: > 100 µM
IC50 [4, 13]: 53.1 µM
IC50 (MCF-7 cells; [11]): 90.6 µM
IC50 (Panc-1 cells [5]; [14]): 21.4 µM
IC50 (HCT-116 cells; [12]): 32.9 µM

CCCc1cc2c(c(O)c1[C@@H]1OC(CO)[C@@H](O)C(O)C1O)[C@@H]1CC(C)=CC[C@H]1C(C)(C)O2 (stereo partly drawn) [Compound 1b, Δ^8-tetrahydrocannabivarin-2-C-β-D-glucopyranoside]
IC50 (MIAPaCa-2 cells [1]; Homo sapiens, MIA PaCa-2, 48 h, MTT, 48 h, read-out: Cytotoxicity (IC50) MIAPaCa-2): 9.2 µM
IC50 (PC3 cells; Homo sapiens, PC-3, 48 h, MTT, 48 h, read-out: Cytotoxicity (IC50) PC3): 24 µM
IC50 ([3]; Homo sapiens, HT-29, 48 h, MTT, 48 h, read-out: Cytotoxicity (IC50) HT-29): 40.2 µM
IC50 ([4]; Homo sapiens, A549, 48 h, MTT, 48 h, read-out: Cytotoxicity (IC50) A549): 35.7 µM
IC50 (MCF-7 cells; Homo sapiens, MCF7, 48 h, MTT, 48 h, read-out: Cytotoxicity (IC50) MCF-7): > 100 µM
IC50 (Panc-1 cells [5]; Homo sapiens, PANC-1, 48 h, MTT, 48 h, read-out: Cytotoxicity (IC50) Panc-1): 4.12 µM
fold activity compared to parent compound, pancreatic cancer cells (Panc-1 cells [5]; ratio of IC50 parent vs derivative, Panc-1): > 2 fold
anti-proliferative potential in colony formation assay (Panc-1 cells [7]): strong anti-proliferative potential
IC50 (HCT-116 cells; Homo sapiens, HCT-116, 48 h, MTT, 48 h, read-out: Cytotoxicity (IC50) HCT-116): 3.91 µM
